Source: US4014909A, “Esters of 21-thiol steroids” (priority 1974, dated 1977)

How the values were obtained:
[1] = Action on the protein metabolism: weight increase of immature rats, 96 hours; assay type: in vivo, rat (Wistar
From the text: The action on the protein metabolism was examined by means of a test, the principle of which is as follows:
The administration of gluco-corticoids results in a disturbance of the protein metabolism, which is shown by an exaggerated protein catabolism resulting in shrinking of the tissues objectified by an inhibition of growth in weight in the young animal and a loss of body weight in the adult animal.
For this study, immature rats of Wistar strain were utilized, the initial weight of which was between 45 and 55 grams, which were distributed at random groups of 10.
The products under study were administered daily for 4 days. The animals were weighed daily during the 4 days of treatment and 24 hours after the last dose.
The products tested were administered either orally or by sub-cutaneous injection, in suspension in 5 % gum arabic for the oral route or in carboxy-methyl-cellulose at 5 % for the sub-cutaneous method, the animals of the reference group receiving the same volume of vehicle by the same method as the corresponding animals treated.
The average variation of the body weight during the 96 hours treatment was calculated for each group of animals.
The increase in weight of immature rats (45 to 55 grams) treated for 96 hours following the procedure (g) by JO 1016, by the oral or the sub-cutaneous routes (average weight at the end of the study, less the average weight at the beginning) are indicated in the following Table XVIII.

[2] = Hydro-mineral equilibrium: sodium excretion after 4 weeks treatment; assay type: in vivo, rat (Sprague-Dawley); conditions: male rat, 500 mg/kg s.c.
Protocol: The action on the endocrine glands and the genital tractus, and a possible ulcerogenic effect were investigated, together with the effects on the glucidic and proteic metabolisms, on the hydro-mineral equilibrium after long-term administration.
There were utilized groups of 10 male rats and ten female rats of Sprague-Dawley S.P.F. strain which have been given the products under study by sub-cateneous methods daily for four weeks.
The products were administered in suspension in 5 % carboxy-methyl-cellulose under a volume of 0.5 ml. per 100 grams of body weight, in three different doses, the animals of the reference lot receiving the same volume of the vehicle alone.
In order to confirm certain previous results of the pharmacological short-term study, there has furthermore been determined, for each lot of animals:
at the end of the treatment:
the sodium excretion in 5 hours
During the course of the long-term study, the JO 1016 was administered daily to the male and female rats in doses of 100 mg/kg, 250 mg/kg, 500 mg/kg by the sub-cutaneous route.

With `CC(C)(C)C(=O)SCC(=O)[C@@]1(O)CC[C@H]2[C@@H]3CCC4=CC(=O)CC[C@]4(C)[C@H]3[C@@H](O)C[C@@]21C` [JO 1016, Dihydroxy-11β, 17α thio-21 dioxo-3,20 pregnene-4-21 pivalate] the “Increase in weight of immature rats” value ([1]; 1 mg/rat/day, sub-cutaneous route) was 17 g, the “Increase in weight of immature rats” value ([1]; 3 mg/rat/day, oral route) was 14 g and the “Increase in weight of immature rats” value ([1]; 10 mg/rat/day (last line of Table XVIII (so in the source)), oral route) was 8 g. For the same compound, the “Increase in weight of immature rats” value ([1]; 10 mg/rat/day, oral route) was 11 g, the “Increase in weight of immature rats” value ([1]; 10 mg/rat/day, sub-cutaneous route) was 16 g and the “Increase in weight of immature rats” value ([1]; 30 mg/rat/day, oral route) was 13 g. The “Increase in weight of immature rats” value ([1]; 30 mg/rat/day, sub-cutaneous route) was 16 g and the “Sodium excreted, average ± standard error” value [2] was 1,41 ± 0,116 Meq.
